Measured values reported in patent publication US20130331378A1, “PYRAZOLOPYRIDINE DERIVATIVE OR PHARMACOLOGICALLY ACCEPTABLE SALT THEREOF” (KISSEI PHARMACEUTICAL CO., LTD., priority 2011, published 2013).

Experiments:
rat EP1 receptor = target: T1, rat EP1 receptor (Rattus norvegicus, UniProt P70597); test: Test for confirming EP1 receptor antagonistic effect: suppression of prostaglandin E2-induced rise in intracellular calcium concentration; assay type: cell-based; settings: rat EP1 receptor-expressing COS-1 cells; prostaglandin E2 10 nM; Fluo 4-AM fluorescent signal; test compound 0.1 nM to 10 μM
T1 construct: expressed in transfected cells
T1 sequence (P70597 1-405): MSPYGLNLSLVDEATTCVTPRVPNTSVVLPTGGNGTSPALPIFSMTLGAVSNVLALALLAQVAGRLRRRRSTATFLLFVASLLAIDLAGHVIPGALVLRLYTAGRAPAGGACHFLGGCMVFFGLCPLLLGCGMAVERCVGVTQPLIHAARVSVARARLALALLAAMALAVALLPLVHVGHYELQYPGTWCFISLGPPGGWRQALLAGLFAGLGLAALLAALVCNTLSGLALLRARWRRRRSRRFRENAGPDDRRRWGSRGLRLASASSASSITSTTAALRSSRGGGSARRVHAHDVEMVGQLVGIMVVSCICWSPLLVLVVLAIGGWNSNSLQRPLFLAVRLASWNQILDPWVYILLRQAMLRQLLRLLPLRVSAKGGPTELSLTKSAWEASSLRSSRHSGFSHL
Description: (1) Preparation of Rat EP1 Expression Vector
The first PCR was performed with Rat Kidney BD Marathon-Ready cDNA (Nippon Becton Dickinson Co., Ltd.) as a template using a forward primer represented by SEQ ID NO: 1 and a reverse primer represented by SEQ ID NO: 2 and using KOD-Plus-Ver 2.0 (Toyobo Co., Ltd.). The second PCR was further performed in a similar manner with this amplification product as a template using a forward primer represented by SEQ ID NO: 3 and a reverse primer represented by SEQ ID NO: 4. The amplification product obtained by the second PCR was incorporated into a vector (pcDNA3.1 D/V5-His-TOPO (registered trademark), Invitrogen Corporation). This vector with the incorporated amplification product was introduced to E. coli (One Shot TOP10 Competent Cell, Invitrogen Corporation) by a conventional method to perform transformation. This transformed E. coli was cultured for 1 day in an LB agar medium. After the culture, colonies were selected and cultured in an LB liquid medium containing 50 μg/mL of ampicillin. After the culture, the vector was purified using QIAprep Spin Miniprep Kit (Qiagen Corporation). The base sequence (SEQ ID NO: 5) of the inserted site in this vector was compared with the base sequence (Ptger1) of rat EP1 registered under Accession No. NM_013100 in a heretofore known database (NCBI) and consequently was completely identical except for 1 base. Moreover, an amino acid sequence translated from this base sequence was completely identical to the amino acid sequence of the rat EP1 receptor registered under Accession No. NP_037232 in NCBI. Thus, it was confirmed that the cloned gene sequence was the base sequence of the rat EP1 receptor and the obtained amino acid sequence was the rat EP1 receptor. The pcDNA3.1 D/V5-His-TOPO (registered trademark) in which the nucleic acid represented by SEQ ID NO: 5 was inserted was used as a rat EP1 expression vector.
(2) Preparation of Rat EP1 Receptor-Expressing Cell
COS-1 cells (Dainippon Sumitomo Pharma Co., Ltd.) were cultured at 37° C. in an incubator under 5% CO2 gas conditions using a D-MEM liquid medium (containing high glucose and L-glutamine, Invitrogen Corporation) supplemented with a penicillin-streptomycin solution (Invitrogen Corporation, final concentration: 100 U/mL as benzylpenicillin; 100 μg/mL as streptomycin) as antibiotics, MEM non-essential amino acids (Invitrogen Corporation, final concentration: 0.1 mM), and fetal bovine serum (Moregate Biotech, final concentration: 10%), until reaching confluence.
The cells that reached confluence were dissociated with 0.05% trypsin/0.53 mM EDTA.4Na (Invitrogen Corporation) and resuspended in the liquid medium. The resuspended cells were diluted with the liquid medium so that the spread ratio became 1:4 to 1:8, and were cultured.
The cells that reached confluence were dissociated with 0.05% trypsin/0.53 mM EDTA.4Na and resuspended in a D-MEM liquid medium (containing high glucose and L-glutamine, Invitrogen Corporation) supplemented with MEM non-essential amino acids (final concentration: 0.1 mM) and fetal bovine serum (final concentration: 10%). This resuspended cell suspension was prepared with a liquid medium so as to become the number of cells 5×10^4 cells/100 μL of the liquid medium/well in each well of a poly-D-lysine-coated 96-well microplate (BD BioCoat (registered trademark), Nippon Becton Dickinson Co., Ltd.), and this cell preparation was dispensed at 100 μL to each well and seeded. After the seeding, the cells were cultured at 37° C. in an incubator under 5% CO2 gas conditions. The introduction of the rat EP1 expression vector was performed by procedures shown below at the point in time when the cells for introduction of this rat EP1 expression vector adhered (approximately 2 hours after the seeding).
Lipofectamine 2000 (Invitrogen Corporation) was used for the introduction of the rat EP1 expression vector. […]

[1] = test system: 17-PTP-induced bladder contraction; test: Suppressing effect on 17-phenyl trinor prostaglandin E2 (17-PTP)-induced bladder contraction; assay type: in vivo, Wistar-type male rat; settings: urethane-anesthetized spinal cord-cut rat; test compound 1 mg/kg i.v. 5 minutes before 17-PTP i.a.; most decreased value until 95 minutes, relative to average before test compound administration
Description: (1) Preparation of Experimental Animal
A 10 w/v % urethane solution was subcutaneously administered (s. c.) at a dose of 1.5 g/kg to a Wistar-type male rat to thereby induce anesthesia. Approximately 40 minutes after the urethane administration, the rat was confirmed to be fully anesthetized, hair in the back, the thighs on both sides, the abdomen, and the neck was shaved, and fixation in a face-down position was performed. After midline incision of the dorsal skin, thoracodorsal muscles on both sides were incised along the spine, and the muscular layer was opened with a retractor to expose the thoracic spine. While the ninth thoracic vertebra was pulled cranially, a small hole was made with bone forceps, and from it, the spinal cord was cut using a soldering iron. At this time, in the case where bleeding was heavy, a gelatin sponge for hemostasis was put into the cut portion. The thoracodorsal incision layer was closed using a surgical adhesive, and then, the rat was fixed in a face-up position. […]
The rat was placed in a face-up position on a heating pad for small animals, and a rectal temperature probe was inserted from the anus to keep the body temperature at 37.5° C. The body temperature was confirmed to become 37.5° C., then 0.1 mL of a physiological saline solution was injected into the bladder, and intravesical pressure was measured. […]

| Compound | IC50 (rat EP1 receptor) | Amount of change in intravesical pressure [1] |
| --- | --- | --- |
| C=Cc1ccc2c(Cc3cccc(C(=O)O)n3)c(-c3ccccc3)nn2c1 [Example 3-11, 6-[(2-Phenyl-6-vinylpyrazolo[1,5-a]pyridin-3-yl)methyl]pyridine-2-carboxylic acid] | 21 nM | – |
| O=C(O)c1cccc(Cc2c(-c3ccccc3)nn3cc(Cl)ccc23)n1 [Example 3-3, 6-[(6-Chloro-2-phenylpyrazolo[1,5-a]pyridin-3-yl)methyl]pyridine-2-carboxylic acid] | 8 nM | 53% |
| CSc1ccc2c(Cc3cccc(C(=O)O)n3)c(-c3ccccc3)nn2c1 [Example 12-17, 6-[[6-(Methylthio)-2-phenylpyrazolo[1,5-a]pyridin-3-yl]methyl]pyridine-2-carboxylic acid] | 87 nM | – |
| O=C(O)c1cccc(Cc2c(-c3cccc(F)c3)nn3cc(Cl)ccc23)n1 [Example 12-38, 6-[[6-Chloro-2-(3-fluorophenyl)pyrazolo[1,5-a]pyridin-3-yl]methyl]pyridine-2-carboxylic acid] | 39 nM | – |
| O=c1[nH]c(-c2cccc(Cc3c(-c4ccccc4)nn4cc(Cl)ccc34)n2)no1 [Example 25-1] | 46 nM | – |
| O=C(O)c1cccc(Cc2c(-c3ccccc3)nn3cc(Br)ccc23)n1 [Example 3-14, 6-[(6-Bromo-2-phenylpyrazolo[1,5-a]pyridin-3-yl)methyl]pyridine-2-carboxylic acid] | 11 nM | – |
| CC(C)(C)c1nn2cc(Cl)ccc2c1Cc1cccc(C(=O)O)n1 [Example 12-23, 6-[(2-tert-Butyl-6-chloropyrazolo[1,5-a]pyridin-3-yl)methyl]pyridine-2-carboxylic acid] | 48 nM | – |
| COc1ccc2c(Cc3cccc(C(=O)O)n3)c(-c3cccc(F)c3)nn2c1 [Example 12-53, 6-[[2-(3-Fluorophenyl)-6-methoxypyrazolo[1,5-a]pyridin-3-yl]methyl]pyridine-2-carboxylic acid] | 2.9 nM | – |
